Results from US20070179161A1, “Pyrazolopyrimidine compounds and their use in medicine” (VERNALIS (CAMBRIDGE) LIMITED., priority 2003, published 2007).

Columns and labels:
Type in all cases: biochemical
GST-Chk1 enzyme = target: T1, GST-Chk1 enzyme (Homo sapiens, UniProt O14757); experiment: Chk1 kinase inhibition assay (33P phosphorylation of Chktide, filter plate); details: 0.01 mM ATP, 11 nM GST-Chk1, 40 minutes at 30° C.; read-out: Chk1 IC50
T1 sequence (O14757 1-476): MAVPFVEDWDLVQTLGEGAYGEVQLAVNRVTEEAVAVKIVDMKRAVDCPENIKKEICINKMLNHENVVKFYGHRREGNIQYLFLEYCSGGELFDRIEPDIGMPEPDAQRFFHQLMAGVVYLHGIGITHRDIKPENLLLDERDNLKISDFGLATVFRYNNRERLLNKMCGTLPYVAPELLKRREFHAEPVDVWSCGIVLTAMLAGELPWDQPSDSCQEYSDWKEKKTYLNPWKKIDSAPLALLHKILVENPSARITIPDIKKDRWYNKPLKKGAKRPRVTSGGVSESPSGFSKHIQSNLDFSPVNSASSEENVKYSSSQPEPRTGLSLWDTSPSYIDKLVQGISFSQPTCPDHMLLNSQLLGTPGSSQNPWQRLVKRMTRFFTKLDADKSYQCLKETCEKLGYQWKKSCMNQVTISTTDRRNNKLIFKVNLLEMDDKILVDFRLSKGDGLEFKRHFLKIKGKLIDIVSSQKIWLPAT
How it was run: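 Inhibitor and enzyme reacted 40 min at 30 °C, then stopped with 50 mM phosphoric acid. Phosphorylated peptide captured on filter plates and quantified by scintillation counting.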

PDK1 enzyme = target: T2, PDK1 enzyme (Homo sapiens, UniProt O15530); experiment: PDK1 kinase inhibition assay (33P phosphorylation of synthetic peptide, filter plate); details: 0.01 mM ATP, 60 min at 30° C.; read-out: PDK1 IC50
T2 sequence (O15530 1-556): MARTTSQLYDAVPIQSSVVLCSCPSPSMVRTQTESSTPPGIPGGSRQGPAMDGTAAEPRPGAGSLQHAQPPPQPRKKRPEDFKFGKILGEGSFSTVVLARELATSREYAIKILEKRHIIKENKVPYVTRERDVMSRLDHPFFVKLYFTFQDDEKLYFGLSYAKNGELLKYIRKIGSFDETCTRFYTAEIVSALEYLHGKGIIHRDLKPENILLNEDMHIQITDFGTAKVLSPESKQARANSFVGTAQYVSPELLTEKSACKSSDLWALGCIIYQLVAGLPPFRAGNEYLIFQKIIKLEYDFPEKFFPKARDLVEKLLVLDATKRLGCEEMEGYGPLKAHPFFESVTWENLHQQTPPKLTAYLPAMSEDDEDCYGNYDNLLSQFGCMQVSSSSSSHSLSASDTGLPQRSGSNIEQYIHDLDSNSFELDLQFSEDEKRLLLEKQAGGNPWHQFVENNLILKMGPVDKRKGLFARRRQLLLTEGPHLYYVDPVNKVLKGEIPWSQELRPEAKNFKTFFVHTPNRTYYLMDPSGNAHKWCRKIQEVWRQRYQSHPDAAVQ
How it was run: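 PDK1 and inhibitor incubated 60 min at 30° C with 0.01 mM ATP plus 33P-γ-ATP, 0.075 mM peptide, 7.5 mM Mg acetate, 0.1 mg/ml BSA in 0.05 M Tris.HCl pH 7.5. Stopped with phosphoric acid; phosphorylated peptide captured on filter plate and counted by scintillation.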

[1] = target: CDK-2 enzyme, complexed with cyclin A (Homo sapiens, UniProt P24941); experiment: CDK2 enzyme inhibition assay (33P phosphorylation of peptide […], filter plate); details: CDK-2/cyclin A, 0.1 mM ATP, 40 min at 30° C.
How it was run: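 Cyclin A–complexed CDK2 (0.4 U/ml) incubated with inhibitor, 0.03 mM peptide, 0.1 mM ATP plus 33P-γ-ATP in HEPES pH 7.5, 7.5 mM Mg acetate, 0.1 mg/ml BSA, 40 min at 30 °C. Stopped with phosphoric acid; phosphorylated peptide captured on filter plates and counted by scintillation.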

IC50 (GST-Chk1 enzyme) [µM] | IC50 (PDK1 enzyme) [µM] | IC50 [1] [µM] | SMILES
27 | > 200 | 0.07 | CN(C)S(=O)(=O)c1cccc(Nc2cc(N[C@H]3CC[C@H](N)CC3)nc3c(Br)cnn23)c1 [Example 94]
24.9 | 64.2 | 1.86 | CC(C)c1cnn2c(Nc3ccc(S(=O)(=O)N(C)C)cc3)cc(N3CCC(CN)CC3)nc12 [Example 95]
> 200 | > 200 | 0.124 | COCCN(C)S(=O)(=O)c1ccc(Nc2cc(Cl)nc3c(C(C)C)cnn23)cc1 [Example 96]
4.75 | > 200 | 7.81 | CC(C)c1cnn2c(Nc3ccc(S(=O)(=O)N(C)C)cc3)cc(N3CCC[C@H]3CN)nc12 [Example 97]
18.7 | > 200 | 7.5 | CC(C)c1cnn2c(Nc3ccc(S(=O)(=O)N(C)C)cc3)cc(NCCN)nc12 [Example 98]
0.953 | 6.91 | 0.128 | CC(C)c1cnn2c(Nc3ccc(S(=O)(=O)N(C)CCN(C)C)cc3)cc(N[C@H]3CC[C@H](N)CC3)nc12 [Example 99]
29.3 | 30.3 | 0.092 | CCN(CC)[C@H]1CC[C@H](Nc2cc(Nc3ccc(S(=O)(=O)N(C)C)cc3)n3ncc(C(C)C)c3n2)CC1 [Example 100]
> 200 | 3.81 | 0.024 | CC(C)c1cnn2c(Nc3ccc(S(=O)(=O)N(C)C)cc3)cc(N[C@H]3CC[C@H](O)CC3)nc12 [Example 101]
> 200 | > 200 | 0.965 | CC(C)c1cnn2c(Nc3ccc(S(=O)(=O)N(C)C)cc3)cc(NCCCN3CCOCC3)nc12 [Example 102]
> 200 | > 200 | 0.177 | CC(C)c1cnn2c(Nc3ccc(S(=O)(=O)N(C)C)cc3)cc(N3CCCC3CO)nc12 (stereo not drawn) [Example 104]
> 200 | > 200 | 5.98 | CC(C)c1cnn2c(Nc3ccc(S(=O)(=O)N(C)C)cc3)cc(N3CCC(CN(C)C)CC3)nc12 [Example 105]
18.2 | 14.4 | 3.34 | CC(C)c1cnn2c(Nc3ccc(S(=O)(=O)N(C)C)cc3)cc(NCC(C)(C)CN(C)C)nc12 [Example 106]
19.6 | 96.5 | 0.101 | CC(C)c1cnn2c(Nc3ccc(S(C)(=O)=O)nc3)cc(N[C@H]3CC[C@H](N)CC3)nc12 [Example 107]
> 200 | > 200 | 3.14 | CCNc1cc(Nc2ccc(S(=O)(=O)N(C)C)cc2)n2ncc(C(C)C)c2n1 [Example 108]
15.2 | > 200 | 10.3 | CC(C)c1cnn2c(Nc3ccc(S(=O)(=O)N(C)C)cc3)cc(N3CCN(CC4CCN(C)CC4)CC3)nc12 [Example 109]
> 200 | > 200 | 0.274 | CCOC(=O)c1cc(Nc2ccc(S(=O)(=O)N(C)C)cc2)n2ncc(C(C)C)c2n1 [Example 112]
2.2 | 3.12 | 2.05 | CC(C)c1cnn2c(Nc3ccc(S(=O)(=O)N(C)C)cc3)cc(NC3CCCC(N)C3)nc12 (stereo not drawn) [Example 113]
3.45 | 125 | 0.017 | CC(C)c1cnn2c(Nc3ccc(S(=O)(=O)N(C)C)cc3)cc(O[C@H]3CC[C@H](N)CC3)nc12 [Example 114]
> 200 | > 200 | 7.89 | CCNC(=O)c1cc(Nc2ccc(S(=O)(=O)N(C)C)cc2)n2ncc(C(C)C)c2n1 [Example 115]
> 200 | > 200 | 23.3 | CC(C)c1cnn2c(Nc3ccc(S(=O)(=O)N(C)C)cc3)cc(C(=O)O)nc12 [Example 117]
36.8 | > 200 | 6.76 | CC(C)c1cnn2c(Nc3ccc(S(=O)(=O)N(C)C)cc3)cc(C(=O)NCCN)nc12 [Example 118]

IC50 (GST-Chk1 enzyme) [µM] | IC50 (PDK1 enzyme) [µM] | IC50 [1] [µM] | SMILES
> 200 | > 200 | 22.7 | CC(C)c1cnn2c(Nc3ccc(S(=O)(=O)N(C)C)cc3)cc(N(C)c3ccncc3)nc12 [Example 119]
> 200 | > 200 | 0.594 | CC(C)c1cnn2c(Nc3ccc(S(=O)(=O)N(C)C)cc3)cc(C(=O)N3CCC(O)CC3)nc12 [Example 120]
> 200 | > 200 | 9.3 | CC(C)c1cnn2c(Nc3ccc(S(=O)(=O)N(C)C)cc3)cc(C(=O)NCCN3CCOCC3)nc12 [Example 121]
> 200 | > 200 | 3.17 | CC(C)c1cnn2c(Nc3ccc(S(=O)(=O)N(C)C)cc3)cc(C(=O)NCCN(C)C)nc12 [Example 122]
> 200 | > 200 | 22.1 | CC(C)c1cnn2c(Nc3ccc(S(=O)(=O)N(C)C)cc3)cc(NCCCN3CCN(C)CC3)nc12 [Example 124]
20.5 | 19.9 | 0.155 | CCCN(CCC)[C@H]1CC[C@H](Nc2cc(Nc3ccc(S(=O)(=O)N(C)C)cc3)n3ncc(C(C)C)c3n2)CC1 [Example 125]
> 200 | 34.4 | 0.073 | CC(C)c1cnn2c(Nc3ccc(S(=O)(=O)N(C)C)cc3)cc(N[C@H]3CC[C@H](NS(C)(=O)=O)CC3)nc12 [Example 126]
> 200 | 29.3 | 0.005 | CN(C)S(=O)(=O)c1ccc(Nc2cc(Cl)nc3c(C4CC4)cnn23)cc1 [Example 127]
1.03 | 0.178 | 0.022 | CN(C)S(=O)(=O)c1ccc(Nc2cc(N[C@H]3CC[C@H](N)CC3)nc3c(C4CC4)cnn23)cc1 [Example 128]
43 | > 50 | 0.081 | CN(C)CCNS(=O)(=O)c1ccc(Nc2cc(Cl)nc3c(Br)cnn23)cc1 [Example 135]
0.97 | > 50 | 0.565 | CN(C)S(=O)(=O)c1ccc(Nc2cc(N[C@@H]3CCCC[C@@H]3N)nc3c(Br)cnn23)cc1 [Example 138]
0.5 | 5.29 | 3.66 | CN(C)S(=O)(=O)c1ccc(Nc2cc(N[C@H]3CC[C@@H](N)CC3)nc3c(Br)cnn23)cc1 [Example 140]
13 | 9 | 0.142 | CC(C)c1cnn2c(Nc3ccc(S(=O)(=O)N(C)C)cc3)cc(N[C@H]3CC[C@H](NC(N)=O)CC3)nc12 [Example 141]
11 | > 50 | 0.08 | NC(=O)c1ccc(Nc2cc(Cl)nc3c(Br)cnn23)cc1 [Example 145]
2 | 1.54 | 0.004 | CN(C)S(=O)(=O)c1ccc(Nc2cc(N[C@H]3CC[C@H](N)CC3)nc3c(Cl)cnn23)cc1 [Example 148]
10 | 57 | 0.14 | CCc1cnn2c(Nc3ccc(C(N)=O)cc3)cc(Cl)nc12 [Example 149]
2 | 13 | 0.478 | CC(C)c1cnn2c(Nc3ccc(S(=O)(=O)N(C)C)cc3)cc(NC3CCC(N)C3)nc12 (stereo not drawn) [Example 150]
0.63 | > 200 | 1.42 | CN(C)S(=O)(=O)c1ccc(Nc2cc(N[C@H]3CC[C@H](N)CC3)nc3c(-c4ccsc4)cnn23)cc1 [Example 154]
> 200 | 10 | 24.9 | CN(C)S(=O)(=O)c1ccc(Nc2cc(Cl)nc3c(-c4ccsc4)cnn23)cc1 [Example 156]
8 | 72 | 0.037 | CC(C)c1cnn2c(Nc3ccc(S(=O)(=O)N(C)C)cc3)cc(CN3CCC(N)CC3)nc12 [Example 157]
